Measurements: EP0465913B1, “Diaminotrifluoromethylpyrimidine derivatives, process for their production and phospholipase A2 inhibitor containing them” (ISHIHARA SANGYO KAISHA, LTD., priority 1990, dated 1992)
Counter-ions that a name gives are not always drawn.

How the values were obtained:
[1] = target: T1, Porcine pancreatic phospholipase A2 (Sus scrofa, UniProt P00592); experiment: Phospholipase A2 inhibitory activity, method B (L-α-dipalmitoylphosphatidylcholine substrate); assay type: biochemical; conditions: 37°C for 30 minutes; for inhibition at 1000 ppm: 1,000 ppm, read-out: % inhibition of PLA2 (1,000 ppm)
T1 construct: purchased Boehringer Mannheim·Yamanouchi K.K. 161454·122416
T1 sequence (P00592 23-146): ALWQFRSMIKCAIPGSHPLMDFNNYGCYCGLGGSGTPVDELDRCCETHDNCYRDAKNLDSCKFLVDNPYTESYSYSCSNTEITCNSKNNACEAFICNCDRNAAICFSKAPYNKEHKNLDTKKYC
Method in brief: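 Substrate: L-α-dipalmitoylphosphatidylcholine/sodium cholate mixed micelles in 250 mM NaCl, 100 mM Tris-HCl pH 8.0. Enzyme (10 µg/ml stock) incubated with compound in buffer containing CaCl2 and BSA, 30 min at 37 °C. Released free fatty acid measured by ACS-ACOD at 540 nm; % inhibition derived from apparent enzyme concentration read off a standard curve.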

[2] = system: increased vascular permeability induced by acetic acid; experiment: Inhibitory activity on increased vascular permeability induced by acetic acid (Rat Whittle method, method D); assay type: in vivo, SD (Crj: CD) male rats; conditions: amount of leaked dye
Method: Using SD (Crj: CD) male rats, each test group consisted of from 3 to 5 rats. A test compound was mixed with Tween 80 [polyoxyethylenesorbitan monooleate (manufactured by Nacalai Tesque K.K.)], and distilled water was added thereto to obtain a 2% Tween 80 suspension, or it was dissolved in the form of a salt in water to obtain an aqueous solution. A test compound was orally administered, and one hour later, 0.7% acetic acid was intraperitonially injected to each rat in an amount of 0.05 ml/10 g, and at the same time, 2% brilliant blue was intravenously injected into the tail vein in an amount of 0.05 ml/20 g. Thirty minutes after the injection of brilliant blue, the cervical vertebrae were dislocated under anesthesia by chloroform, and the abdorminal cavity was washed with 10 ml of a physiological saline. The washing solution was subjected to centrifugal separation at 3,000 rpm for 10 minutes, and the amount of the dye in the supernatant was measured at 600 nm absorbance by Microplate ELISA Reader (Model 2550EIA Reader, manufactured by Bio-Rad Laboratories). The inhibition rate of the amount of leaked dye in the group to which a test compound was administered relative to the control group was obtained from the following formula, and the results are shown in Table 9. Inhibition rate (%) = (l -(C)/(D)) x 100 [formula] • C: Amount of leaked dye in the group to which a test compound was administered. • D: Amount of leaked dye in the control group.

[3] = system: carrageenin edema; experiment: Inhibitory activity on carrageenin edema; assay type: in vivo, Wistar male rats; conditions: rat, paw swelling volume three hours after carrageenin; for Inhibition rate (%): dose 50 mg/kg orally; for inhibition in vivo at 100 mg/kg: po, 3 h, dose 100 mg/kg orally, read-out: Inhibition rate (%)
Method in brief: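 Male Wistar rats (about 100 g, 5 per group) dosed orally at 200, 100, 50 or 25 mg/kg as 2% Tween 80 suspension or aqueous salt solution, 1 h before subplantar injection of 0.1 ml 1% λ-carrageenin. Paw swelling measured at 3 h; % inhibition versus control group mean swelling.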

[4] = system: increased vascular permeability induced by acetic acid; experiment: Inhibitory activity on increased vascular permeability induced by acetic acid (Mouse Whittle method, method C); assay type: in vivo, ddy male mice; conditions: amount of leaked dye
Method in brief: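 ddy male mice (4-5 per group) dosed orally with compound in 2% Tween 80 suspension or aqueous salt solution. Dye measured at 600 nm; inhibition % calculated versus vehicle control leakage.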

Compound | inhibition at 1000 ppm [1] | Inhibition rate (%) [3] | Inhibition rate (%) ([4]; dose 20 mg/kg orally) | Inhibition rate (%) ([4]; dose 10 mg/kg orally) | further results
CS(=O)(=O)Nc1ncc(C(F)(F)F)cc1NC(=O)c1cc2ccccc2s1 [compound 86] | 93% | 27% | 42% |  | Inhibition rate (%) ([2]; dose 50 mg/kg orally): 37%
CS(=O)(=O)Nc1ncc(C(F)(F)F)cc1NC(=O)c1ccc(F)cc1 [Compound No. 10, N-(2-methylsulfonylamino-5-trifluoromethyl-3-pyridyl)-4-fluorobenzamide] | 51% |  |  | 42% | inhibition in vivo at 100 mg/kg [3]: 28%
CS(=O)(=O)Nc1ncc(C(F)(F)F)cc1NC(=O)C(F)(F)C(F)(F)F [compound 13] | 51% |  |  |  | inhibition in vivo at 100 mg/kg [3]: 21%; Inhibition rate (%) ([4]; dose 100 mg/kg orally): 57%
CCS(=O)(=O)Nc1ncc(C(F)(F)F)cc1NC(=O)C1CCCCC1 [Compound No. 47, N-(2-ethylsulfonylamino-5-trifluoromethyl-3-pyridyl)cyclohexanecarboxamide] | 90% |  |  | 46% | Inhibition rate (%) ([3]; 50 mg/kg): 41%
C/C=C/C(=O)Nc1cc(C(F)(F)F)cnc1NS(=O)(=O)CC [compound 93, N-(2-ethylsulfonylamino-5-trifluoromethyl-3-pyridyl)crotonamide] | 48% | 22% |  | 40% | Inhibition rate (%) ([2]; dose 25 mg/kg orally): 54%
CS(=O)(=O)Nc1ncc(C(F)(F)F)cc1NC(=O)c1ccccc1 [compound 43] | 49% | 31% | 48% |  | 
CS(=O)(=O)Nc1ncc(C(F)(F)F)cc1NC(=O)c1ccc2c(c1)CCC2 [compound 87] | 88% | 21% |  | 28% | Inhibition rate (%) ([2]; dose 12.5 mg/kg orally): 47%
CS(=O)(=O)Nc1ncc(C(F)(F)F)cc1NC(=O)C1CCCC1 [compound 45] | 41% | 23% | 29% |  | 
CCS(=O)(=O)Nc1ncc(C(F)(F)F)cc1NC(=O)C1CCCC1 [compound 94] | 63% | 23% | 53% |  | Inhibition rate (%) ([2]; dose 25 mg/kg orally): 45%
CCS(=O)(=O)Nc1ncc(C(F)(F)F)cc1NC(=O)C1CCCCC1 [Compound No. 251, sodium salt of N-(2-ethylsulfonylamino-5-trifluoromethyl-3-pyridyl)cyclohexanecarboxamide] |  |  |  |  | % inhibition of PLA2 (1,000 ppm) [1]: 85%; Inhibition rate (%) ([2]; dose 12.5 mg/kg orally): 46%; Inhibition rate (%) ([3]; 50 mg/kg): 30%; Inhibition rate (%) ([4]; dose 20 mg/kg orally, 20 mg/kg): 43%
CS(=O)(=O)Nc1ncc(C(F)(F)F)cc1NC(=O)c1cccc(Cl)c1 [compound 79] | 65% | 20% | 67% |  | Inhibition rate (%) ([2]; dose 50 mg/kg orally): 74%
Cc1cccc(C(=O)Nc2cc(C(F)(F)F)cnc2NS(C)(=O)=O)c1 [compound 78] | 51% | 26% |  | 32% | Inhibition rate (%) ([2]; dose 25 mg/kg orally): 40%
